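The compound was tested at five concentrations on cells cultured in 96-well plates, with a 48-hour exposure period. The concentration for 50% growth inhibition is given as GI50. TGI: concentration producing complete growth inhibition.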
How the values were obtained:
Assay in all cases: inhibition of tumour cell growth, NCI panel, 48 h
ACHN renal = system: ACHN renal
HL-60(TB) leukemia = system: HL-60(TB) leukemia
NCI-H460 lung = system: NCI-H460 lung
BT-549 breast = system: BT-549 breast
SF-295 CNS = system: SF-295 CNS
786-0 renal = system: 786-0 renal
LOX IMVI melanoma = system: LOX IMVI melanoma
MCF7 breast = system: MCF7 breast
CAKI-1 renal = system: CAKI-1 renal
K-562 leukemia = system: K-562 leukemia
HT29 colon = system: HT29 colon
SK-MEL-5 melanoma = system: SK-MEL-5 melanoma
OVCAR-4 ovarian = system: OVCAR-4 ovarian
SF-268 CNS = system: SF-268 CNS
UO-31 renal = system: UO-31 renal
OVCAR-5 ovarian = system: OVCAR-5 ovarian
HCT-116 colon = system: HCT-116 colon
SK-MEL-28 melanoma = system: SK-MEL-28 melanoma
M14 melanoma = system: M14 melanoma
TK-10 renal = system: TK-10 renal
OVCAR-3 ovarian = system: OVCAR-3 ovarian
SK-MEL-2 melanoma = system: SK-MEL-2 melanoma
A498 renal = system: A498 renal
SF-539 CNS = system: SF-539 CNS
IGROV1 ovarian = system: IGROV1 ovarian
HCC-2998 colon = system: HCC-2998 colon
UACC-257 melanoma = system: UACC-257 melanoma
OVCAR-8 ovarian = system: OVCAR-8 ovarian
PC-3 prostate = system: PC-3 prostate
UACC-62 melanoma = system: UACC-62 melanoma
A549 NSCLC = system: A549 NSCLC
COLO 205 colon = system: COLO 205 colon
EKVX NSCLC = system: EKVX NSCLC
RXF 393 renal = system: RXF 393 renal
HOP-92 NSCLC = system: HOP-92 NSCLC
CCRF-CEM leukemia = system: CCRF-CEM leukemia
MOLT-4 leukemia = system: MOLT-4 leukemia
NCI/ADR-RES ovarian = system: NCI/ADR-RES ovarian
RPMI-8226 leukemia = system: RPMI-8226 leukemia
MALME-3M melanoma = system: MALME-3M melanoma
U251 CNS = system: U251 CNS
T-47D breast = system: T-47D breast
SW-620 colon = system: SW-620 colon
HCT-15 colon = system: HCT-15 colon
SNB-75 CNS = system: SNB-75 CNS
MDA-MB-231 breast = system: MDA-MB-231 breast
SK-OV-3 ovarian = system: SK-OV-3 ovarian
NCI-H23 lung = system: NCI-H23 lung
NCI-H522 lung = system: NCI-H522 lung
HOP-62 NSCLC = system: HOP-62 NSCLC
SNB-19 CNS = system: SNB-19 CNS
KM12 colon = system: KM12 colon
SN12C renal = system: SN12C renal
DU-145 prostate = system: DU-145 prostate
MDA-MB-435 = system: MDA-MB-435

SMILES: CS(=O)(=O)c1ccc(N/N=C/c2c(-c3ccc(S(C)(=O)=O)cc3)[nH]c3ccc(F)cc23)cc1
- GI50 (ACHN renal): 3.32 µM
- TGI (ACHN renal): > 50 µM
- GI50 (HL-60(TB) leukemia): 2590 nM
- TGI (HL-60(TB) leukemia): > 50 µM
- GI50 (NCI-H460 lung): 1770 nM
- TGI (NCI-H460 lung): > 50 µM
- GI50 (BT-549 breast): 1440 nM
- TGI (BT-549 breast): > 50 µM
- GI50 (SF-295 CNS): 934 nM
- TGI (SF-295 CNS): 1890 nM
- GI50 (786-0 renal): 1690 nM
- TGI (786-0 renal): > 50 µM
- GI50 (LOX IMVI melanoma): 1240 nM
- TGI (LOX IMVI melanoma): 3.64 µM
- GI50 (MCF7 breast): 1590 nM
- TGI (MCF7 breast): > 50 µM
- GI50 (CAKI-1 renal): > 50 µM
- TGI (CAKI-1 renal): > 50 µM
- GI50 (K-562 leukemia): 2000 nM
- TGI (K-562 leukemia): > 50 µM
- GI50 (HT29 colon): 2080 nM
- TGI (HT29 colon): > 50 µM
- GI50 (SK-MEL-5 melanoma): 792 nM
- TGI (SK-MEL-5 melanoma): 1500 nM
- GI50 (OVCAR-4 ovarian): 1970 nM
- TGI (OVCAR-4 ovarian): > 50 µM
- GI50 (SF-268 CNS): 3.4 µM
- TGI (SF-268 CNS): > 50 µM
- GI50 (UO-31 renal): 2160 nM
- TGI (UO-31 renal): > 50 µM
- GI50 (OVCAR-5 ovarian): > 50 µM
- TGI (OVCAR-5 ovarian): > 50 µM
- GI50 (HCT-116 colon): 2680 nM
- TGI (HCT-116 colon): > 50 µM
- GI50 (SK-MEL-28 melanoma): 1590 nM
- TGI (SK-MEL-28 melanoma): > 50 µM
- GI50 (M14 melanoma): 2160 nM
- TGI (M14 melanoma): > 50 µM
- GI50 (TK-10 renal): 2950 nM
- TGI (TK-10 renal): > 50 µM
- GI50 (OVCAR-3 ovarian): 2230 nM
- TGI (OVCAR-3 ovarian): > 50 µM
- GI50 (SK-MEL-2 melanoma): 1740 nM
- TGI (SK-MEL-2 melanoma): 4.73 µM
- GI50 (A498 renal): 1390 nM
- TGI (A498 renal): 4.88 µM
- GI50 (SF-539 CNS): 676 nM
- TGI (SF-539 CNS): 2110 nM
- GI50 (IGROV1 ovarian): 2780 nM
- TGI (IGROV1 ovarian): > 50 µM
- GI50 (HCC-2998 colon): 10.8 µM
- TGI (HCC-2998 colon): > 50 µM
- GI50 (UACC-257 melanoma): 1800 nM
- TGI (UACC-257 melanoma): 20.2 µM
- GI50 (OVCAR-8 ovarian): 1240 nM
- TGI (OVCAR-8 ovarian): > 50 µM
- GI50 (PC-3 prostate): 2180 nM
- TGI (PC-3 prostate): > 50 µM
- GI50 (UACC-62 melanoma): 1910 nM
- TGI (UACC-62 melanoma): > 50 µM
- GI50 (A549 NSCLC): 7.98 µM
- TGI (A549 NSCLC): > 50 µM
- GI50 (COLO 205 colon): 2860 nM
- TGI (COLO 205 colon): > 50 µM
- GI50 (EKVX NSCLC): 40.2 µM
- TGI (EKVX NSCLC): > 50 µM
- GI50 (RXF 393 renal): 904 nM
- TGI (RXF 393 renal): 1940 nM
- GI50 (HOP-92 NSCLC): 2180 nM
- TGI (HOP-92 NSCLC): > 50 µM
- GI50 (CCRF-CEM leukemia): 1200 nM
- TGI (CCRF-CEM leukemia): > 50 µM
- GI50 (MOLT-4 leukemia): 1190 nM
- TGI (MOLT-4 leukemia): > 50 µM
- GI50 (NCI/ADR-RES ovarian): > 50 µM
- TGI (NCI/ADR-RES ovarian): > 50 µM
- GI50 (RPMI-8226 leukemia): 1150 nM
- TGI (RPMI-8226 leukemia): 2900 nM
- GI50 (MALME-3M melanoma): 1340 nM
- TGI (MALME-3M melanoma): 4.38 µM
- GI50 (U251 CNS): 1470 nM
- TGI (U251 CNS): > 50 µM
- GI50 (T-47D breast): 1410 nM
- TGI (T-47D breast): > 50 µM
- GI50 (SW-620 colon): 4.57 µM
- TGI (SW-620 colon): > 50 µM
- GI50 (HCT-15 colon): 18.1 µM
- TGI (HCT-15 colon): > 50 µM
- GI50 (SNB-75 CNS): 1520 nM
- TGI (SNB-75 CNS): 40 µM
- GI50 (MDA-MB-231 breast): 1690 nM
- TGI (MDA-MB-231 breast): > 50 µM
- GI50 (SK-OV-3 ovarian): 3.27 µM
- TGI (SK-OV-3 ovarian): > 50 µM
- GI50 (NCI-H23 lung): 2840 nM
- TGI (NCI-H23 lung): > 50 µM
- GI50 (NCI-H522 lung): 2080 nM
- TGI (NCI-H522 lung): > 50 µM
- GI50 (HOP-62 NSCLC): 2170 nM
- TGI (HOP-62 NSCLC): > 50 µM
- GI50 (SNB-19 CNS): 2360 nM
- TGI (SNB-19 CNS): > 50 µM
- GI50 (KM12 colon): 2840 nM
- TGI (KM12 colon): > 50 µM
- GI50 (SN12C renal): 2970 nM
- TGI (SN12C renal): > 50 µM
- GI50 (DU-145 prostate): 2750 nM
- TGI (DU-145 prostate): > 50 µM
- GI50 (MDA-MB-435): 3.12 µM
- TGI (MDA-MB-435): > 50 µM
